Experimental findings from the NIST ThermoML archive (doi:10.1021/je500420g) are described below.

Numbers after ± are expanded uncertainties.

A short description of this series: xn = mol fraction of the nth substance listed. To be noted: 100 kPa, Liquid, Vibrating tube method.

Usually mass density stands for mass per unit of volume. Take `[Cl-].[Li+]` [lithium chloride] + O: the mass density reads like this: (293.15 K, x1 = 0.01) 1012.3 ± 0.2 kg/m3; (293.15 K, x1 = 0.03) 1038.5 ± 0.2 kg/m3; (293.15 K, x1 = 0.05) 1064.1 ± 0.2 kg/m3; (303.15 K, x1 = 0.01) 1009.7 ± 0.2 kg/m3; (303.15 K, x1 = 0.03) 1035.7 ± 0.2 kg/m3; (303.15 K, x1 = 0.05) 1061.2 ± 0.2 kg/m3. Moreover, the mass density by setting is: (313.15 K, x1 = 0.01) 1006.2 ± 0.2 kg/m3; (313.15 K, x1 = 0.03) 1032.3 ± 0.2 kg/m3; (313.15 K, x1 = 0.05) 1057.9 ± 0.2 kg/m3; (323.15 K, x1 = 0.01) 1002.1 ± 0.2 kg/m3; (323.15 K, x1 = 0.03) 1028.3 ± 0.2 kg/m3; (323.15 K, x1 = 0.05) 1054 ± 0.2 kg/m3. Besides, the mass density is 997.4 ± 0.2 kg/m3 (333.15 K, x1 = 0.01); 1023.8 ± 0.2 kg/m3 (333.15 K, x1 = 0.03); 1049.8 ± 0.2 kg/m3 (333.15 K, x1 = 0.05).

With `[I-].[Li+]` [lithium iodide] + O, the mass density (293.15 K, x1 = 0.01) is on record as 1053.3 ± 0.2 kg/m3; the mass density (293.15 K, x1 = 0.03) is given as 1160.8 ± 0.3 kg/m3; the mass density (293.15 K, x1 = 0.05) turned out to be 1268.1 ± 0.4 kg/m3; the mass density (303.15 K, x1 = 0.01) is given as 1049.8 ± 0.2 kg/m3; the mass density (303.15 K, x1 = 0.03) was 1156.3 ± 0.3 kg/m3; the mass density (303.15 K, x1 = 0.05) amounted to 1262.7 ± 0.4 kg/m3. Also, the mass density is, setting by setting: (313.15 K, x1 = 0.01) 1045.7 ± 0.2 kg/m3; (313.15 K, x1 = 0.03) 1151 ± 0.3 kg/m3; (313.15 K, x1 = 0.05) 1257.2 ± 0.4 kg/m3; (323.15 K, x1 = 0.01) 1041.2 ± 0.2 kg/m3; (323.15 K, x1 = 0.03) 1146.1 ± 0.3 kg/m3; (323.15 K, x1 = 0.05) 1251.4 ± 0.4 kg/m3. In addition, the mass density by setting is: (333.15 K, x1 = 0.01) 1036.2 ± 0.2 kg/m3; (333.15 K, x1 = 0.03) 1140.7 ± 0.3 kg/m3; (333.15 K, x1 = 0.05) 1245.5 ± 0.4 kg/m3.

As for `[Br-].[K+]` [potassium bromide] + O, the mass density (293.15 K, x1 = 0.01) turned out to be 1045.7 ± 0.2 kg/m3; the mass density (293.15 K, x1 = 0.03) was found to be 1137.7 ± 0.3 kg/m3; the mass density (293.15 K, x1 = 0.05) is on record as 1227.4 ± 0.3 kg/m3; the mass density (303.15 K, x1 = 0.01) turned out to be 1042.6 ± 0.2 kg/m3; the mass density (303.15 K, x1 = 0.03) is 1133.7 ± 0.3 kg/m3; the mass density (303.15 K, x1 = 0.05) is 1222.6 ± 0.3 kg/m3. The mass density (313.15 K, x1 = 0.01) is reported as 1038.7 ± 0.2 kg/m3; the mass density (313.15 K, x1 = 0.03) came out at 1129.1 ± 0.3 kg/m3; the mass density (313.15 K, x1 = 0.05) turned out to be 1217.4 ± 0.3 kg/m3; the mass density (323.15 K, x1 = 0.01) worked out at 1034.2 ± 0.2 kg/m3; the mass density (323.15 K, x1 = 0.03) came out at 1123.9 ± 0.3 kg/m3; the mass density (323.15 K, x1 = 0.05) worked out at 1211.7 ± 0.3 kg/m3. In addition, the mass density (333.15 K, x1 = 0.01) is listed as 1029.2 ± 0.2 kg/m3; the mass density (333.15 K, x1 = 0.03) is reported as 1118.4 ± 0.3 kg/m3; the mass density (333.15 K, x1 = 0.05) turned out to be 1205.7 ± 0.3 kg/m3.

Turning to `[Cl-].[K+]` [potassium chloride] + O, the mass density reads like this: (293.15 K, x1 = 0.01) 1024.3 ± 0.2 kg/m3; (293.15 K, x1 = 0.03) 1074.8 ± 0.2 kg/m3; (293.15 K, x1 = 0.05) 1123.6 ± 0.3 kg/m3; (303.15 K, x1 = 0.01) 1021.4 ± 0.2 kg/m3; (303.15 K, x1 = 0.03) 1071.2 ± 0.2 kg/m3; (303.15 K, x1 = 0.05) 1119.6 ± 0.3 kg/m3. In addition, the mass density (313.15 K, x1 = 0.01) stood at 1017.7 ± 0.2 kg/m3; the mass density (313.15 K, x1 = 0.03) came to 1067 ± 0.2 kg/m3; the mass density (313.15 K, x1 = 0.05) is listed as 1115.1 ± 0.3 kg/m3; the mass density (323.15 K, x1 = 0.01) came out at 1013.3 ± 0.2 kg/m3; the mass density (323.15 K, x1 = 0.03) was found to be 1062.4 ± 0.2 kg/m3; the mass density (323.15 K, x1 = 0.05) came out at 1110.2 ± 0.3 kg/m3. For the same molecule, the mass density is, setting by setting: (333.15 K, x1 = 0.01) 1008.4 ± 0.2 kg/m3; (333.15 K, x1 = 0.03) 1057.2 ± 0.3 kg/m3; (333.15 K, x1 = 0.05) 1104.9 ± 0.3 kg/m3.

In the case of `[F-].[K+]` [potassium fluoride] + O, the mass density (293.15 K, x1 = 0.01) is recorded as 1025.7 ± 0.2 kg/m3; the mass density (293.15 K, x1 = 0.03) came out at 1080.5 ± 0.2 kg/m3; the mass density (293.15 K, x1 = 0.05) turned out to be 1135.5 ± 0.3 kg/m3; the mass density (303.15 K, x1 = 0.01) came to 1022.8 ± 0.2 kg/m3; the mass density (303.15 K, x1 = 0.03) amounted to 1077 ± 0.2 kg/m3; the mass density (303.15 K, x1 = 0.05) is given as 1130.7 ± 0.3 kg/m3. In addition, the mass density was 1019.2 ± 0.2 kg/m3 (313.15 K, x1 = 0.01); 1072.9 ± 0.2 kg/m3 (313.15 K, x1 = 0.03); 1126.5 ± 0.3 kg/m3 (313.15 K, x1 = 0.05); 1014.8 ± 0.2 kg/m3 (323.15 K, x1 = 0.01); 1068.4 ± 0.2 kg/m3 (323.15 K, x1 = 0.03); 1121.9 ± 0.3 kg/m3 (323.15 K, x1 = 0.05). In addition, the mass density is listed as 1010 ± 0.2 kg/m3 (333.15 K, x1 = 0.01); 1063.5 ± 0.2 kg/m3 (333.15 K, x1 = 0.03); 1116.9 ± 0.3 kg/m3 (333.15 K, x1 = 0.05).
